Source: patent US20240408064A1, “RAS INHIBITORS, COMPOSITIONS AND METHODS OF USE THEREOF” (GENETOLEAD INC., priority 2021, published 2024)

Key:
HRas^G12V [1] = molecular target: T1, HRas^G12V (Homo sapiens (Human), UniProt P01112, G12V); assay: 19F DLB (ligand-observed 19F NMR) score; format: binding; design: scale not given here
Outline: (§1)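 In the T2-CPMG experiment, echo spacing was 1 ms and total delays ranged over eight values from 1 to 800 ms. Both scores come from 600 MHz NMR of 50 μM HRas G12V mixed with fragment pools at 240 μM each, in phosphate buffer pH 7.4 with NaCl, MgCl2 and TCEP-d16. Ligand-observed 19F spectra were recorded with 1H decoupling, 64 scans and a 5 s relaxation delay.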

HRas^G12V [2] = molecular target: T1, HRas^G12V; assay: 19F T2-CPMG NMR score; format: binding
Outline: as §1

HRas^G12V [3] = molecular target: T1, HRas^G12V; assay: Overall binding/activity in the various assays (NMR consensus binding)
Procedure: Since the fragment library was curated using phosphate buffer, 25 mM sodium phosphate pH 7.4, 150 mM NaCl, 5 mM MgCl2, 1 mM TCEP-d16, 10% D2O Fresh TCEP was used for experiments. Screening was performed using ^1H-decoupled 1D ^19F experiment Bruker experiment (zgfhigqn.2) with 64 scans and a relaxation delay of 5 seconds. 50 μM HRas^G12V and 240 μM of each fragment in pools (mixtures) were used.
Hit confirmation was performed using the same ^19F experiment as the screen. Ligand-observed 1D ^1H, protein-observed 1D ^1H, ^1H T2-CPMG as well as Saturation Transfer Difference (STD) experiments were also run on the same samples. Ligand-observed 1D ^1H was run using the standard Bruker sequence with excitation sculpting (zgesgp) with a relaxation delay of 10 seconds and 16 scans per spectrum. Protein-observed 1D ^1H was performed using the same sequence with a relaxation delay of 1 second and 256 scans in order to increase the signal-to-noise of the protein resonances, while keeping the experimental time relatively short. The ^1H T2-CPMG experiment employed a modified version of the Bruker 1D ^1H zgesgp experiment with the addition of a CPMG pulse train after the first 90° excitation pulse. Total duration for each spin echo was fixed at 1 ms (τ=500 μs), while the number of echoes in the pulse train was varied according to the total time (T). The number of scans for each spectrum was 4 and eight delay times were run on each sample, ranging from 1 ms to 800 ms.
STD experiments consisted of two independent spectra with offsets of 0 ppm (on resonance) and −20 ppm (off resonance). […] 160 scans were acquired for each spectrum.
The results obtained with the compounds in the various assays described above are depicted in Table 21.
Because of its power to probe the intrinsically weak interactions (Kd) between targets and low-molecular weight fragments, NMR fragment-based lead discovery (FBLD) is a very useful biophysical method in early stage drug discovery, especially for challenging target proteins; including those with shallow binding pockets. Since FBLD screens are performed using low-molecular weight compounds (fragments) with lower structural complexity, the same chemical space can be covered using a smaller number of drug-like fragments versus use of large libraries of higher-molecular weight lead-like compounds as in high throughput screening (HTS) campaigns. Therefore, FBLD has a much higher hit rate than HTS using only several hundred to several thousand compounds in comparison with approximately 1 million compounds for HTS. Also, the small size of the compounds screened in FBLD means a better chance to fully match the interactions with small or transient pockets within the target protein, where these less tractable pockets cannot be accessed with standard classical HTS methods. […] We expect this methodology to be more advantageous than classical HTS methods for expediting the time from hit to lead (H2L) and allows for rapid access to high quality leads with lower attrition rates in subsequent lead optimization (LO) campaigns toward pre-clinical candidate selection. FBLD screening by NMR involves a “consensus binding” approach where several distinct NMR experiments (DLB, STD, CPMG) are applied along with a free-state aggregation detection method (T2-CPMG) to rank the compounds for their affinity to the receptor (HRAS in this case) whilst simultaneously monitoring the solution behavior and critical quality attributes of each compound. The latter helps to eliminate artifact binders which are highly problematic. We performed a fluorine screen involving 461 compounds that were derived from a highly curated fragment library. Moreover, two-dimensional ^15N HSQC NMR was also used to validate ligand-binding sites on the target protein. In addition, we employed protein-detected biophysical measurements were employed to determine fragment binding affinities to the target protein (Kd) by HSQC NMR. […]

T1 sequence (P01112 1-166 G12V): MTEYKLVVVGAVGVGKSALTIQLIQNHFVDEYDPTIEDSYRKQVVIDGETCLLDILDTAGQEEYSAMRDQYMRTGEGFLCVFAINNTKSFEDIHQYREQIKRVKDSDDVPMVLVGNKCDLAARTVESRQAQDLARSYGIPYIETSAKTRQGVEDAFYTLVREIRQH

SMILES | 19F DLB Score (HRas^G12V [1]) | 19F T2-CPMG Score (HRas^G12V [2]) | Binding to HRas^G12V (in words) (HRas^G12V [3])
O=C(Cc1ccc(F)cc1)NCCc1c[nH]c2cc(F)ccc12 [Compound 10012] | 1.32 | 3.96 | low or no binding
O=C(Cc1c[nH]c2cc(F)ccc12)NCCN1CCOCC1 [Compound 10015] | 1.57 | 7.79 | low or no binding
O=C(NCCc1c[nH]c2cc(F)ccc12)[C@@H]1CCCO1 [Compound 10023, (S)—N-(2-(6-fluoro-1H-indol-3-yl)ethyl) tetrahydrofuran-2-carboxamide] | 1.53 | 6.9 | low or no binding
Cn1cc(CC(=O)N2CCC2)c2ccc(F)cc21 [Compound 10024, 1-(azetidin-1-yl)-2-(6-fluoro-1-methyl-1H-indol-3-yl) ethan-1-one] | 1.06 | 0.01 | low or no binding
CN1CCC[C@@H]1C(=O)NCCc1c[nH]c2cc(F)ccc12 [Compound 10028] | 1.01 | 1.61 | low or no binding
O=C(Cc1c[nH]c2cc(F)ccc12)NCCc1cccnc1 [Compound 10029] | 1.19 | 1.2 | low or no binding
O=C(Cc1c[nH]c2cc(F)ccc12)NCCc1ccc(F)cc1 [Compound 10031] | 1.13 | 1.34 | low or no binding
CCOC(=O)c1ccc(NC(=O)Cc2c[nH]c3cc(F)ccc23)c(C)c1 [Compound 10034] | 1.6 | −8.2 | low or no binding
CN1CCC[C@H]1C(=O)NCCc1c[nH]c2cc(F)ccc12 [Compound 10036] | 1.22 | 2.32 | low or no binding
CCOC(=O)[C@@H](C)NC(=O)Cc1c[nH]c2cc(F)ccc12 [Compound 10037] | 1.25 | 4.07 | low or no binding
CCOC(=O)[C@H](C)NC(=O)Cc1c[nH]c2cc(F)ccc12 [Compound 10038] | 1.1 | 2.19 | low or no binding
CC(=O)N1CCC[C@@H]1C(=O)NCCc1c[nH]c2cc(F)ccc12 [Compound 10044] | 1.07 | 0.95 | low or no binding
CC(=O)N1CCC[C@H]1C(=O)NCCc1c[nH]c2cc(F)ccc12 [Compound 10045] | 1.1 | 1.13 | low or no binding
O=S(=O)(NCCc1c[nH]c2cc(F)ccc12)c1ccc(F)cc1 [Compound 10046] | 1.02 | 0.79 | low or no binding
Fc1ccc2c(CCNCCc3c[nH]c4cc(F)ccc34)c[nH]c2c1 [Compound 10047, Bis(2-(6-fluoro-1H-indol-3-yl)ethyl)amine] | 1.19 | 3.38 | low or no binding
CC(C)(C(=O)N1CCC1)c1c[nH]c2cc(F)ccc12 [Compound 10049, 1-(azetidin-1-yl)-2-(6-fluoro-1H-indol-3-yl)-2-methylpropan-1-one] | 1.43 | 3.53 | low or no binding
CCOC(=O)CNC(=O)Cc1c[nH]c2cc(F)ccc12 [Compound 10050] | 1.22 | 2.95 | low or no binding
CC(C)(CNC(=O)Cc1c[nH]c2cc(F)ccc12)C(=O)O [Compound 10062] | 1.07 | 1.59 | low or no binding
O=C(NCCc1c[nH]c2cc(F)ccc12)C1CCOC1 (stereo not drawn) [Compound 10063] | 1.1 | 2.82 | low or no binding
CCN(CC)CC(=O)NCCc1c[nH]c2cc(F)ccc12 [Compound 10064] | 1.16 | 1.74 | low or no binding
O=C(Cc1c[nH]c2ccccc12)Nc1ccc(F)cc1 [Compound 10067] | 1.2 | 2.15 | low or no binding
O=C(Cc1c[nH]c2cc(F)ccc12)N[C@H]1CCOC1 [Compound 10070] | 1.46 | 5.56 | low or no binding
O=C(Cc1c[nH]c2cc(F)ccc12)N[C@@H]1CCOC1 [Compound 10071] | 1.35 | 4.49 | low or no binding
CC(=O)N1CCC[C@H](NC(=O)Cc2c[nH]c3cc(F)ccc23)C1 [Compound 10073, (S)—N-(1-acetylpiperidin-3-yl)-2-(6-fluoro-1H-indol-3-yl)acetamide] | 1.17 | 2.3 | low or no binding
CC(=O)N1CCC[C@@H](NC(=O)Cc2c[nH]c3cc(F)ccc23)C1 [Compound 10074] | 1.23 | 3.48 | low or no binding
Cc1[nH]c2cc(F)ccc2c1CC(=O)N1CCC1 [Compound 10077, 1-(azetidin-1-yl)-2-(6-fluoro-2-methyl-1H-indol-3-yl)ethan-1-one] | 0.96 | 0.41 | low or no binding
CCOC(=O)[C@@H](NC(=O)Cc1c[nH]c2cc(F)ccc12)C(C)C [Compound 10079, Ethyl (2-(6-fluoro-1H-indol-3-yl)acetyl)valinate] | 1.23 | 2.25 | low or no binding
COCC(=O)Nc1cccc(NC(=O)Cc2c[nH]c3cc(F)ccc23)c1 [Compound 10080, 2-(6-fluoro-1H-indol-3-yl)-N-(3-(2-methoxyacetamido)phenyl)acetamide] | 2.67 | −1.66 | low or no binding
